# Patent publication US10065941B2, “Aminotriazine derivative and pharmaceutical composition comprising the same” (Shionogi & Co., Ltd., priority 2013, dated 2018)
# Target: human P2X3 receptor (Homo sapiens (Human), UniProt P56373)
# Experiment: Evaluation of human P2X3 receptor inhibitory activity (Test Example 1)
# Assay type: cell-based
# Details: C6BU-1 cell transfected with human P2X3 receptor gene, FLIPR 384
# Summary of the method: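 C6BU-1 cells stably expressing human P2X3, loaded with 4 μM Fluo-3-AM 1 h at 37 °C, preincubated 5 min with test compound, then stimulated with 150 nM ATP solution (stock, pre-dispense) and monitored by FLIPR for 4 min. IC50 derived from maximum fluorescence ratio (post-ATP peak over baseline).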
# human P2X3 receptor, sequence (P56373 whole entry): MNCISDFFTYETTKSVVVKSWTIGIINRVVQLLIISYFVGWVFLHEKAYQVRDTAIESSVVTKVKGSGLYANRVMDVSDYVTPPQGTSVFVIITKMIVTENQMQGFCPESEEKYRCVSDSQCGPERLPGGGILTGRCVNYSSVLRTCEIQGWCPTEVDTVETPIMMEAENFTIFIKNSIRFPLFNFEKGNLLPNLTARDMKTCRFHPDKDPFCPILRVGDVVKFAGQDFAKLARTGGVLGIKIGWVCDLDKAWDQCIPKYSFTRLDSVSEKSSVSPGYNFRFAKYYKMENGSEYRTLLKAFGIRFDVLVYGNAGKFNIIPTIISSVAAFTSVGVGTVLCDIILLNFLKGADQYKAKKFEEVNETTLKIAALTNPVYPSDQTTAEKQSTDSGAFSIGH
row,SMILES,IC50
1,COc1cncc(Oc2ccc(/N=c3\[nH]c(=O)n(CC(C)(C)C(=O)O)c(=O)n3Cc3ccc(Cl)cc3)cc2)c1 [Compound R-202],12 nM
2,C[C@@H](Cn1c(=O)[nH]/c(=N\c2ccc(Oc3nc4ncccc4o3)cc2)n(Cc2ccc(Cl)cc2)c1=O)C(=O)O [Compound R-204],8 nM
3,COC(=O)[C@@H](C)Cn1c(=O)[nH]/c(=N\c2ccc(Oc3cccnc3)cc2)n(Cc2ccc(Cl)cc2)c1=O [Compound R-205],8 nM
4,COC(=O)[C@@H](C)Cn1c(=O)[nH]/c(=N\c2ccc(Oc3ccncc3)cc2)n(Cc2ccc(Cl)cc2)c1=O [Compound R-206],5 nM
5,C[C@@H](Cn1c(=O)[nH]/c(=N\c2ccc(Oc3cccnc3)cc2)n(Cc2ccc(Cl)cc2)c1=O)C(=O)O [Compound R-207],9 nM
6,C[C@@H](Cn1c(=O)[nH]/c(=N\c2ccc(Oc3ccncc3)cc2)n(Cc2ccc(Cl)cc2)c1=O)C(=O)O [Compound R-208],5 nM
7,C[C@@H](Cn1c(=O)[nH]/c(=N\c2ccc(Oc3nccnc3Cl)cc2)n(Cc2ccc(Cl)cc2)c1=O)C(=O)O [Compound R-211],7 nM
8,C[C@@H](C(=O)O)[C@H](C)n1c(=O)[nH]/c(=N\c2ccc(Oc3ccnc(C#N)c3)cc2)n(Cc2ccc(Cl)cc2)c1=O [Compound R-212],8 nM
9,COC(=O)[C@H](C)[C@H](C)n1c(=O)[nH]/c(=N\c2ccc(Oc3ncc(C)s3)cc2)n(Cc2ccc(C)cc2)c1=O [Compound R-213],12 nM
10,COC(=O)[C@@H](C)Cn1c(=O)[nH]/c(=N\c2ccc(Oc3ncc(C)s3)cc2)n(Cc2ccc(C)cc2)c1=O [Compound R-214],6 nM
11,COC(=O)C(C)(C)Cn1c(=O)[nH]/c(=N\c2ccc(Oc3ncc(C)s3)cc2)n(Cc2ccc(C)cc2)c1=O [Compound R-215],6 nM
12,Cc1ccc(Cn2c(=O)n([C@@H](C)[C@@H](C)C(=O)O)c(=O)[nH]/c2=N\c2ccc(Oc3ncc(C)s3)cc2)cc1 [Compound R-217],8 nM
13,Cc1ccc(Cn2c(=O)n(C[C@H](C)C(=O)O)c(=O)[nH]/c2=N\c2ccc(Oc3ncc(C)s3)cc2)cc1 [Compound R-218],6 nM
14,Cc1ccc(Cn2c(=O)n(CC(C)(C)C(=O)O)c(=O)[nH]/c2=N\c2ccc(Oc3ncc(C)s3)cc2)cc1 [Compound R-219],11 nM
15,CCc1oc2ccc(/N=c3\[nH]c(=O)n(C[C@H](C)C(=O)OC)c(=O)n3Cc3ccc(C)cc3)cc2c1C [Compound R-220],22 nM
16,COC(=O)[C@@H](C)Cn1c(=O)[nH]/c(=N\c2ccc(Oc3ccnc(F)c3)cc2)n(Cc2ccc(C)cc2)c1=O [Compound R-221],5 nM
17,CCc1oc2ccc(/N=c3\[nH]c(=O)n(C[C@H](C)C(=O)O)c(=O)n3Cc3ccc(C)cc3)cc2c1C [Compound R-222],9 nM
18,Cc1ccc(Cn2c(=O)n(C[C@H](C)C(=O)O)c(=O)[nH]/c2=N\c2ccc(Oc3ccnc(F)c3)cc2)cc1 [Compound R-223],7 nM
19,C[C@@H](C(=O)O)[C@H](C)n1c(=O)[nH]/c(=N\c2ccc(Oc3cnc(C#N)cn3)cc2)n(Cc2ccc(Cl)cc2)c1=O [Compound R-224],12 nM

row,SMILES,IC50
1,COC(=O)CCn1c(=O)[nH]/c(=N\c2ccc(Oc3ccccn3)cc2)n(Cc2ccc(Cl)cc2)c1=O [Compound R-225],4 nM
2,COC(=O)CCn1c(=O)[nH]/c(=N\c2ccc(Oc3ccccn3)cc2)n(Cc2ccc(C)cc2)c1=O [Compound R-226],3 nM
3,COC(=O)CCn1c(=O)[nH]/c(=N\c2ccc(-n3ccccc3=O)cc2)n(Cc2ccc(Cl)cc2)c1=O [Compound R-227],35 nM
4,NC(=O)CCn1c(=O)[nH]/c(=N\c2ccc(Oc3ccccn3)cc2)n(Cc2ccc(Cl)cc2)c1=O [Compound R-229],7 nM
5,CNC(=O)CCn1c(=O)[nH]/c(=N\c2ccc(Oc3ccccn3)cc2)n(Cc2ccc(Cl)cc2)c1=O [Compound R-230],5 nM
6,C[C@@H](Cn1c(=O)[nH]/c(=N\c2ccc(Oc3ccc4nccn4n3)cc2)n(Cc2ccc(Cl)cc2)c1=O)C(=O)O [Compound R-231],5 nM
7,COc1nc(=O)n(Cc2ccc(Cl)cc2)/c(=N/c2ccc(Oc3cccc(C#N)n3)cc2)[nH]1 [Compound R-232],61 nM
8,CC(C)(C)n1c(=O)[nH]/c(=N\c2ccc(Oc3cccc(C(N)=O)n3)cc2)n(Cc2ccc(Cl)cc2)c1=O [Compound R-233],318 nM
9,CC1(C)OC[C@H](Cn2c(=O)[nH]/c(=N\c3ccc(Oc4ccccn4)cc3)n(Cc3ccc(Cl)cc3)c2=O)O1 [Compound R-234],3 nM
10,O=c1[nH]/c(=N\c2ccc(Oc3ccccn3)cc2)n(Cc2ccc(Cl)cc2)c(=O)n1C[C@H](O)CO [Compound R-235],10 nM
11,CC1(Cn2c(=O)[nH]/c(=N\c3ccc(Oc4ccccn4)cc3)n(Cc3ccc(Cl)cc3)c2=O)COC(C)(C)OC1 [Compound R-236],4 nM
12,Cc1nccnc1Oc1ccc(/N=c2\[nH]c(=O)n(C[C@H](C)C(=O)O)c(=O)n2Cc2ccc(Cl)cc2)cc1 [Compound R-237],9 nM
13,"COC(=O)Cn1c(=O)[nH]/c(=N\c2ccc(Oc3ccccn3)cc2)n(Cc2ccc(Cl)cc2)c1=O [Compound R-238, 1-(4-chlorobenzyl)-3-(methoxycarbonylmethyl)-6-[4-(2-pyridyloxy)phenylimino]-1,3,5-triazinane-2,4-dione]",7 nM
14,"O=C(O)Cn1c(=O)[nH]/c(=N\c2ccc(Oc3ccccn3)cc2)n(Cc2ccc(Cl)cc2)c1=O [Compound R-239, 1-(4-chlorobenzyl)-3-(hydroxylcarbonylmethyl)-6-[4-(2-pyridyloxy)phenylimino]-1,3,5-triazinane-2,4-dione]",399 nM
15,"NC(=O)Cn1c(=O)[nH]/c(=N\c2ccc(Oc3ccccn3)cc2)n(Cc2ccc(Cl)cc2)c1=O [Compound R-240, 1-(4-chlorobenzyl)-3-(carbamoylmethyl)-6-[4-(2-pyridyloxy)phenylimino]-1,3,5-triazinane-2,4-dione]",11 nM
16,CNC(=O)Cn1c(=O)[nH]/c(=N\c2ccc(Oc3ccccn3)cc2)n(Cc2ccc(Cl)cc2)c1=O [Compound R-241],9 nM
17,O=C(Cn1c(=O)[nH]/c(=N\c2ccc(Oc3ccccn3)cc2)n(Cc2ccc(Cl)cc2)c1=O)NCCO [Compound R-242],5 nM
18,O=C(Cn1c(=O)[nH]/c(=N\c2ccc(Oc3ccccn3)cc2)n(Cc2ccc(Cl)cc2)c1=O)NCC(F)(F)F [Compound R-243],4 nM
19,CC(CO)(CO)Cn1c(=O)[nH]/c(=N\c2ccc(Oc3ccccn3)cc2)n(Cc2ccc(Cl)cc2)c1=O [Compound R-244],4 nM

row,SMILES,IC50
1,CC1(C)OCC(Cn2c(=O)[nH]/c(=N\c3ccc(Oc4ccccn4)cc3)n(Cc3ccc(Cl)cc3)c2=O)CO1 [Compound R-245],4 nM
2,C[C@@H](Cn1c(=O)[nH]/c(=N\c2ccc(Oc3cnc(C#N)nc3)cc2)n(Cc2ccc(Cl)cc2)c1=O)C(=O)O [Compound R-246],6 nM
3,CC1(C)OC[C@@H](Cn2c(=O)[nH]/c(=N\c3ccc(Oc4ccccn4)cc3)n(Cc3ccc(Cl)cc3)c2=O)O1 [Compound R-247],5 nM
4,O=c1[nH]/c(=N\c2ccc(Oc3ccccn3)cc2)n(Cc2ccc(Cl)cc2)c(=O)n1CCCOC1CCCCO1 (stereo not drawn) [Compound R-248],5 nM
5,C[C@@H](C(=O)O)[C@H](C)n1c(=O)[nH]/c(=N\c2ccc(Oc3cnc(C#N)nc3)cc2)n(Cc2ccc(Cl)cc2)c1=O [Compound R-249],6 nM
6,O=c1[nH]/c(=N\c2ccc(Oc3ccccn3)cc2)n(Cc2ccc(Cl)cc2)c(=O)n1C[C@@H](O)CO [Compound R-250],9 nM
7,"O=c1[nH]/c(=N\c2ccc(Oc3ccccn3)cc2)n(Cc2ccc(Cl)cc2)c(=O)n1CCCO [Compound R-251, 1-(4-chlorobenzyl)-3-(3-hydroxypropyl)-6-[4-(2-pyridyloxy)phenylimino]-1,3,5-triazinane-2,4-dione]",5 nM
8,"C=C(CO)Cn1c(=O)[nH]/c(=N\c2ccc(Oc3ccccn3)cc2)n(Cc2ccc(Cl)cc2)c1=O [Compound R-254, 1-(4-chlorobenzyl)-3-(2-hydroxymethyl-2-propenyl)-6-[4-(2-pyridyloxy)phenylimino]-1,3,5-triazinane-2,4-dione]",3 nM
9,"O=c1[nH]/c(=N\c2ccc(Oc3ccccn3)cc2)n(Cc2ccc(Cl)cc2)c(=O)n1CC(O)(CO)CO [Compound R-255, 1-(4-chlorobenzyl)-3-(2-hydroxymethyl-2,3-dihydroxypropyl)-6-[4-(2-pyridyloxy)phenylimino]-1,3,5-triazinane-2,4-dione]",5 nM
10,NC(=O)NC(=O)Cn1c(=O)[nH]/c(=N\c2ccc(Oc3ccccn3)cc2)n(Cc2ccc(Cl)cc2)c1=O [Compound R-256],2 nM
11,"O=c1[nH]/c(=N\c2ccc(Oc3ccccn3)cc2)n(Cc2ccc(Cl)cc2)c(=O)n1CCO [Compound R-257, 1-(4-chlorobenzyl)-3-(2-hydroxyethyl)-6-[4-(2-pyridyloxy)phenylimino]-1,3,5-triazinane-2,4-dione]",10 nM
12,O=C(O)CCn1c(=O)[nH]/c(=N\c2ccc(Oc3cccc(F)n3)cc2)n(Cc2ccc(CF)cc2)c1=O [Compound R-275],23 nM
13,O=C(O)CCn1c(=O)[nH]/c(=N\c2ccc(Oc3ncccc3F)cc2)n(Cc2ccc(CF)cc2)c1=O [Compound R-276],42 nM
14,Cc1ccc(Cn2c(=O)n(CCCC(=O)O)c(=O)[nH]/c2=N\c2ccc(Oc3ncccc3F)cc2)cc1 [Compound R-277],14 nM
15,Cc1ccc(Cn2c(=O)n(CCCC(=O)O)c(=O)[nH]/c2=N\c2ccc(Oc3ccc(F)cn3)cc2)cc1 [Compound R-278],15 nM
16,Cc1ccc(Cn2c(=O)n(CCCC(=O)O)c(=O)[nH]/c2=N\c2ccc(Oc3cccc(F)n3)cc2)cc1 [Compound R-279],7 nM
17,Cc1ccc(Cn2c(=O)n(CCC(=O)O)c(=O)[nH]/c2=N\c2ccc(Oc3ccccn3)c(F)c2)cc1 [Compound R-280],9 nM
18,O=C(O)CCn1c(=O)[nH]/c(=N\c2ccc(Oc3ccccn3)c(F)c2)n(Cc2ccc(Cl)cc2)c1=O [Compound R-281],7 nM
19,Cc1ccc(Cn2c(=O)n(CCC(=O)O)c(=O)[nH]/c2=N\c2ccc(Oc3ccccn3)c(C)c2)cc1 [Compound R-282],23 nM
